# Measured values reported in PMC3750255, “Inhibition of Mycoplasma pneumoniae growth by FDA-approved anticancer and antiviral nucleoside and nucleobase analogs” (BMC Microbiology, 2013).
# What was measured:
# [1] = test system: Mpn TK; assay: TK activity in total protein extracts of Mpn cultured with TFT; assay type: cell-based, Mycoplasma pneumoniae; details: 10 μM TFT, 70 hours culture
# Description: Total proteins were extracted from these cultures and used to determine the TK and TS activity.
# Mpn wild type cells were cultured in the presence of [^3H]-dT and different concentrations of TFT. The cells were incubated at 37°C for 70 hours and harvested. The total uptake and incorporation of [^3H]-dT were analysed, and TK and TS activity were determined in total protein extracts.
# To determine the effect of TFT on TK and TS activity, Mpn wild type cells were cultured in 75 cm^2 tissue culture flasks containing 50 ml medium, inoculated with 3 ml of stock culture (1 × 10^9 cfu/ml), in the presence of [^3H]-dT (1 μCi ml^-1) and different concentrations of TFT. After 70 hours at 37°C the cultures were harvested and divided to two aliquots, one was used to determine total uptake/metabolism of radiolabeled dT and total proteins were extracted from the other aliquot and used to measure TK and TS activity using [^3H]-dT and [5-^3H]-dUMP as substrates.
# [2] = biological target: T1, Ureaplasma TK (Ureaplasma parvum serovar 3, UniProt Q9PPP5); assay: TFT phosphorylation kinetics, phosphoryl transfer assay; assay type: biochemical; details: 100 μM [γ-32P]-ATP
# T1 construct: made in house
# T1 sequence (Q9PPP5 1-223): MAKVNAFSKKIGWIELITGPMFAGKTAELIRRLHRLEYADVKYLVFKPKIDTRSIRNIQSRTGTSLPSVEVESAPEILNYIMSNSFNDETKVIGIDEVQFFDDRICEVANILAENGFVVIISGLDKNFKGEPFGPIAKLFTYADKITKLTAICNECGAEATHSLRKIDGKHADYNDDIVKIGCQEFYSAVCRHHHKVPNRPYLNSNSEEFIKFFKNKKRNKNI
# Description: (§1) Figure 3 Substrate saturation curves of TFT with human TK2 (A), human TK1 (B), and Ureaplasma TK (C). Kinetic assays with TFT were performed by using [γ-^32P]-ATP as the labelled substrate at fixed concentration and variable concentrations of TFT. The reaction products were separated by thin layer chromatography, and quantified as described in the experimental procedures.
# (§2) Kinetic parameters for TFT were determined by using the phosphoryl transfer assays as previously described. Briefly, each reaction was performed in a total volume of 20 μl containing 50 mM Tris/HCl, pH 7.5, 0.5 mg/ml BSA, 5 mM DTT, 2 mM MgCl2, 15 mM NaF, variable concentrations of TFT, 0.1 mM [γ-^32P]-ATP, and 50 ng purified enzyme at 37°C for 20 min, and stopped by heating at 70°C for 2 min. After brief centrifugation, 1 μl supernatant was spotted onto a TLC plate (PEI-cellulose, Merck) and dried. The TLC plates were developed in isobutyric acid/ammonia/H2O (66:1:33). The reaction products were visualized and quantified by phosphoimaging analysis (Quantity One, Bio-Rad).
# [3] = biological target: T2, human TK2 (Homo sapiens, UniProt O00142); assay: as above; assay type: biochemical; details: 100 μM [γ-32P]-ATP
# T2 construct: made in house
# T2 sequence (O00142 34-265): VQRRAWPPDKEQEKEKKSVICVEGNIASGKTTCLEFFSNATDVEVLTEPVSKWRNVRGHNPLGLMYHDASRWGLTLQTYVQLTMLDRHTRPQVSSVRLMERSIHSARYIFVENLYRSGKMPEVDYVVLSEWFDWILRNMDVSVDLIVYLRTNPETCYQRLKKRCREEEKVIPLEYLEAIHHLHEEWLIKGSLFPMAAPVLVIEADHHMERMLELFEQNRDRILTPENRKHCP
# Description: as §1, §2
# [4] = biological target: T3, human TK1 (Homo sapiens, UniProt P04183); assay: as above; assay type: biochemical; details: 100 μM [γ-32P]-ATP
# T3 construct: made in house
# T3 sequence (P04183 1-234): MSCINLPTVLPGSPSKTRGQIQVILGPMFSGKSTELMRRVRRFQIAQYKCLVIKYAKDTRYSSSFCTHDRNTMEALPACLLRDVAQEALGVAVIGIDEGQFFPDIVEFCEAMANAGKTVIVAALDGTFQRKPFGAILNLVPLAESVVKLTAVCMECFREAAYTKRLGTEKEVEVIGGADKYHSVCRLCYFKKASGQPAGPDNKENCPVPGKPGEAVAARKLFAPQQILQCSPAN
# Description: as §1, §2
# [5] = test system: M. pneumoniae wild type (laboratory strain M129); assay: Mpn growth inhibition in 96-well plates (growth index A450/A560), wild type strain; assay type: cell-based, Mycoplasma pneumoniae; details: for MIC (Mpn growth): as stated in the text, strain not specified, 90% growth inhibition
# Description: A series dilution of each compound in Mycoplasma growth medium was added to Mpn cultures in 96-well plates. The plates were sealed and incubated at 37°C. Mpn growth was monitored by using growth index value e.g. the ratio of absorbance at 450 nm and 560 nm of the culture medium. Thirty nucleoside and nucleobase analogs and a nucleoside transporter inhibitor were included, and two Mpn strains, wild type and a thyA mutant (lacking TS activity), were used.
# Nucleoside and nucleobase analogs were dissolved in dimethyl sulfoxide (DMSO) as stock solutions and diluted with Mpn culture medium to the desired concentration immediately prior to use.
# Mpn laboratory strain M129 wild type and a thyA mutant strain [31] were used in this study. Mpn was cultured at 37°C in a CO2 incubator using 75 cm^2 tissue culture flasks containing 50 ml Hayflick’s medium, and harvested at day 4 when the medium color change was observed. The cells were harvested and the pellet was resuspended in 6 ml fresh medium and the cfu/ml was determined by serial dilution (10-fold) and plating on broth agar plate. Colonies was counted and cfu/ml was calculated.
# Inhibition studies were performed in 96-well plates containing 200 μl Mpn culture (approximately 10^6 cfu ml^-1) in Hayflick’s medium and 200 μl each compound in series dilutions (2-fold) with the growth medium, with three to four replicas. The plates were sealed with clear adhesive sheets and incubated at 37°C incubator. Absorbance ratio at 450 nm and 560 nm was used as Mpn growth index, which was measured daily, and by visual detection for at least 8 days, as previously described. […] The MICs (minimal inhibitory concentration required to inhibit Mpn growth to 90%) were determined as the lowest concentration at which the growth index was ≈ 10% of the control values (at the time when the control culture medium color turned yellow), essentially as described.
# [6] = biological target: T1, Ureaplasma TK; assay: Thymidine kinase inhibition with [3H]-dT as substrate; assay type: biochemical; details: 10 μM tritium labelled thymidine
# Description: (§3) Thymidine kinase assay was performed using tritium labelled thymidine ([^3H]-dT) as substrate and various concentrations of the inhibitors essentially as previously described to determine the IC50 values of TFT and 5FdU.
# [7] = biological target: T2, human TK2; assay: as above; assay type: biochemical; details: 10 μM tritium labelled thymidine
# Description: as §3
# [8] = biological target: T3, human TK1; assay: as above; assay type: biochemical; details: 10 μM tritium labelled thymidine
# Description: as §3
smiles,measurement,setting,value
"O=c1[nH]c(=O)n([C@H]2C[C@H](O)[C@@H](CO)O2)cc1C(F)(F)F [Trifluorothymidine (TFT), Trifluorothymidine]",TK activity relative to controls,[1],~ 3 times
same,kcat,[2],0.055 ± 0.008 s⁻¹
same,Km,[2]; TFT 1 – 100 μM,9.9 ± 5.2 µM
same,kcat,[3],0.026 ± 0.003 s⁻¹
same,Km,[3]; TFT 1 – 100 μM,8.8 ± 3.8 µM
same,kcat,[4],0.043 ± 0.003 s⁻¹
same,Km,[4]; TFT 1 – 100 μM,5.9 ± 1.7 µM
same,MIC (Mpn growth),[5]; listed as trifluorothymidine,approximately 2 μg ml^-1
same,MIC (Mpn growth),[5]; listed as trifluorothymidine (TFT),1.8 µg/mL
same,Wild type MIC,"[5]; minimal concentration producing 90% inhibition, wild type Mpn",1.8 µg/mL
same,IC50,[6],12 ± 4.2 µM
same,IC50,[7],80 ± 5.6 µM
same,IC50,[8],9.7 ± 3.2 µM
